Where “and” joins values, the source holds several entries; their conditions need not be identical. Equal values may be shown once. Where a name gives a salt, the structure may show the parent alone. Read-outs that look alike come from different tables or passages of the source.
Tests used:
[1] = target: T1, T1R1/T1R3 receptor (Felis catus, UniProt E3UMS2); experiment: Example 6: activation of T1R1/T1R3 by transmembrane compounds, conducted as in Example 5; format: cell-based
Description: HEK293 cells that stably express T1R3 and inducibly express T1R1 were exposed to transmembrane compounds alone or in combination with one or more amino acids and/or one or more nucleotides to activate the umami receptor. Activation of the T1R1/T1R3 receptor was detected by a change in intracellular calcium levels using a calcium sensitive fluorescent dye. Cells that express T1R3 but not T1R1 were used as a control. A FLIPR® Tetra or a FlexStation® 3 was used for data capture.
In each experiment, serial dilutions of up to 10 mM of the transmembrane compound were added to the T1R1/T1R3-expressing cells.

[2] = target: T1, T1R1/T1R3 receptor; experiment: cell-based; conditions: for Max resp % of Ala, +IMP (0.2 mM): relative to alanine; for Thres (mM), +IMP (0.2 mM): threshold concentration in the presence of 0.2 mM IMP
Summary of the method: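 HEK293 cells stably expressing T1R3 with inducible T1R1 were given transmembrane compounds in serial dilutions up to 10 mM, alone or with amino acids and/or nucleotides. Receptor activation was read as an intracellular calcium change with a calcium-sensitive fluorescent dye; T1R3-only cells served as control.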

[3] = target: T2, cat T1R1/T1R3 receptor (Felis catus, UniProt A0ABI7Z2I4); experiment: cell-based
T2 sequence (A0ABI7Z2I4 171-420): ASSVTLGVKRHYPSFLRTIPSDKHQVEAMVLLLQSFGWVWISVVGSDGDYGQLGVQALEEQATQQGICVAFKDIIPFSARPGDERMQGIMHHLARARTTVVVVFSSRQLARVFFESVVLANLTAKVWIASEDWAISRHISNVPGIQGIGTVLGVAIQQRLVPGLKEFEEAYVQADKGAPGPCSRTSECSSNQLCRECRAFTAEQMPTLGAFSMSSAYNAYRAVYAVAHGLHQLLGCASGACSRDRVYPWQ
T2 sequence (Q49KI5 25-865 E206Q/N523D/F654L partner): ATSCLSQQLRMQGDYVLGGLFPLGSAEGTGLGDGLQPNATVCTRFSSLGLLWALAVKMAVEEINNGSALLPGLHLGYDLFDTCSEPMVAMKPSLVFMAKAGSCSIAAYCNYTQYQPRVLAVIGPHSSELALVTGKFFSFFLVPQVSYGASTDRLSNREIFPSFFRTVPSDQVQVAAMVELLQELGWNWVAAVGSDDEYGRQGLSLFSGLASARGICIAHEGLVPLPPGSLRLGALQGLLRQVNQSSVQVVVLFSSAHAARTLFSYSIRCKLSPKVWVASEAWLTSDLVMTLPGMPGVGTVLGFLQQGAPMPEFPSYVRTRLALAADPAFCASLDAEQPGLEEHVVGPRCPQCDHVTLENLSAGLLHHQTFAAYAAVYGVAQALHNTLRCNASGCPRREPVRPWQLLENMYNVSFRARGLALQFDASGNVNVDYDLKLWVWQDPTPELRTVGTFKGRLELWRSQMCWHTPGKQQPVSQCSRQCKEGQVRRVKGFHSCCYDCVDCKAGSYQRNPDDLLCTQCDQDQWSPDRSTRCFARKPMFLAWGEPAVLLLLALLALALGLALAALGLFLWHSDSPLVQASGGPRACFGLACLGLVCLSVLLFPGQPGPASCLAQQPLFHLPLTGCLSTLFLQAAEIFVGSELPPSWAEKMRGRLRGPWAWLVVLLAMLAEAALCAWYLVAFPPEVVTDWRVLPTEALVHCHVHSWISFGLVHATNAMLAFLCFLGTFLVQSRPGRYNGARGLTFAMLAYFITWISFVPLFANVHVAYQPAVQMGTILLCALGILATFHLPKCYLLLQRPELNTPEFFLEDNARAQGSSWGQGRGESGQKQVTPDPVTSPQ
Summary of the method: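 HEK293 cells stably expressing T1R3 with inducible T1R1, treated with nucleotide derivatives alone or combined with amino acids and/or nucleotides. Activation read as intracellular calcium change by calcium-sensitive fluorescent dye and/or luminescent reporter. Cells expressing T1R3 without T1R1 served as control.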

[4] = target: T2, cat T1R1/T1R3 receptor; experiment: cell-based; remark: listed apart in the source
Procedure: […] Activation of the T1R1/T1R3 receptor was detected by a change in intracellular calcium levels using a calcium sensitive fluorescent dye. Cells that express T1R3 but not T1R1 were used as a control. A FLIPR® Tetra or a FlexStation® 3 was used for data capture.
In each experiment, serial dilutions of up to 0.1 mM, 1 mM or 10 mM of the nucleotide derivative were added to the T1R1/T1R3-expressing cells.

[5] = target: T1, T1R1/T1R3 receptor; experiment: Example 8: agonist screening of transmembrane compounds on T1R1/T1R3 in HEK293 cells; format: cell-based, cat; conditions: transmembrane compound alone
Procedure: HEK293 cells that stably express T1R3 and inducibly express T1R1 were exposed to a transmembrane compound. Activation of the T1R1/T1R3 receptor was detected by a change in intracellular calcium levels using a calcium sensitive fluorescent dye and/or a luminescent reporter system. […] A FLIPR® Tetra or a FlexStation® 3 was used for data capture.
Each transmembrane compound was tested at concentrations of 0.01 mM, 0.1 mM, and 1 mM. […] To generate the dose response curves, the transmembrane compound was tested at concentrations of between 0.0001 mM and 1.0 mM in the presence of GMP and Ala.
Target sequence in this assay (E3UMS2 entry or part of it, one chain of several): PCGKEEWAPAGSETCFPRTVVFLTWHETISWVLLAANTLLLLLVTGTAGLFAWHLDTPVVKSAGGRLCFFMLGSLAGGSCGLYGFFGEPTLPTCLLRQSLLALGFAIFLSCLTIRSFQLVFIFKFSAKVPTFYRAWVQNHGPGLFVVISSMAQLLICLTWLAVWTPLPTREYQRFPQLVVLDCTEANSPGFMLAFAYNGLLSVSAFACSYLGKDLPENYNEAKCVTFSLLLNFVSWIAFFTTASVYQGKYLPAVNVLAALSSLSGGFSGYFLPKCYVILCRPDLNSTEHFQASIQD

[6] = target: T1, T1R1/T1R3 receptor; experiment: Example 8: PAM screening of transmembrane compounds with GMP and Ala on T1R1/T1R3 in HEK293 cells; format: cell-based, cat; conditions: in the presence of GMP and Alanine
Description: HEK293 cells that stably express T1R3 and inducibly express T1R1 were exposed to transmembrane compound alone or in combination with Ala and GMP to activate the umami receptor. Activation of the T1R1/T1R3 receptor was detected by a change in intracellular calcium levels using a calcium sensitive fluorescent dye and/or a luminescent reporter system. […] A FLIPR® Tetra or a FlexStation® 3 was used for data capture.
Dose response curves were generated for each transmembrane compound at concentrations of 0 (buffer only), 0.01, 0.1 and 1 mM, wherein each of the three concentrations of transmembrane compound was tested in combination with 0.03 mM GMP+100 mM Ala (T1); 0.6 mM GMP+10 mM Ala (T2); 0.1 mM GMP+60 mM Ala (T3) and 0.3 mM GMP+60 mM Ala (T4). The T4 mixture was also tested in a 2-fold dilution series (the T4(×) Concentration). In these experiments, the first test concentration was 2× (2 times) the T4 concentration. The subsequent test concentrations were 2-fold dilutions from that (1×, 0.5×etc.). This dilution series was tested with or without the addition of the test compound at a constant 0.3 mM concentration.
Activation of the umami receptor was also determined in the presence of 1 mM GMP+100 mM Ala to generate a “maximum” umami receptor activation level.
Target sequence in this assay (E3UMS2 entry or part of it, one chain of several): as above

[7] = target: T1, T1R1/T1R3 receptor; experiment: cell-based; format: cell-based
Summary of the method: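 HEK293 cells stably expressing T1R3 with inducible T1R1 received serial dilutions of compound (up to 10 mM), alone or with amino acids and/or nucleotides. Activation was read as an intracellular calcium change with a calcium-sensitive fluorescent dye. Cells expressing T1R3 without T1R1 served as control.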

[8] = T1R1/T1R3 EC50 +0.2 mM IMP, +0.2 mM IMP
[9] = alone in buffer, read-out: T1R1/T1R3 EC50 alone in buffer
[10] = EC50 (mM), +Alanine (20 mM) + IMP (0.2 mM), in the presence of 20 mM alanine and 0.2 mM IMP
[11] = EC50 (mM), +IMP (0.2 mM), in the presence of 0.2 mM IMP
[12] = T1R1/T1R3 EC50 +20 mM L-alanine + 0.2 mM IMP, +20 mM L-alanine + 0.2 mM IMP
[13] = T1R1/T1R3 EC50 +20 mM L-alanine, +20 mM L-alanine
[14] = compound alone in buffer, read-out: EC50 (mM), +buffer (alone)
[15] = test compound alone (in buffer), read-out: EC50- alone

Nc1ccccc1C(=O)NCCc1ccccc1 [2-amino-N-phenethylbenzamide]
EC50 [1]: 480 ± 10 µM
EC50 [1, 8]: 140 ± 30 µM
EC50 [1, 9]: 420 ± 10 µM
Max resp % of IMP, +Alanine (20 mM) [2]: 93.4%
Thres (mM), +Alanine (20 mM) [2]: 0.3 mM
EC50 [2, 10]: 0.09 mM
EC50 ([2]; EC50 (mM), +Alanine (20 mM), in the presence of 20 mM alanine): 0.48 mM
EC50 [2, 11]: 0.14 mM
EC50 [2, 8]: 0.14 ± 0.02 mM
EC50 [2, 12]: 0.09 ± 0.01 mM
EC50 [2, 13]: 0.48 ± 0.01 mM
EC50 [2, 9]: 0.42 ± 0.01 mM
EC50 [2, 14]: 0.42 mM
Max resp % of Ala, +IMP (0.2 mM) ([2]; in the presence of 0.2 mM IMP): 194.5%
Thres (mM), +IMP (0.2 mM) [2]: 0.01 mM

Nc1ncnc2c1ncn2[C@H]1C[C@H](OP(=O)(O)O)[C@@H](COP(=O)(O)O)O1 [2′-deoxyadenosine-3′, 5′-O-bisphosphate]
Max resp. (ΔF/F) [3]: 0.8 ΔF/F
Max. resp. % of IMP [3]: 76.4 % of IMP
Threshold [3]: 0.005 mM
EC50 [4, 15]: 20 µM

COC(=O)[C@H](Cc1ccccc1)NCc1ccccc1 [N-benzyl-L-phenylalanine methyl ester HCl]
EC50 [1, 13]: 50 ± 1 µM
EC50 ([1]; T1R1/T1R3 EC50 alone in buffer, alone in buffer): 30 ± 2 µM

COC(=O)[C@H](Cc1ccccc1)NCc1ccccc1.Cl [N-benzyl-L-phenylalanine methyl ester hydrochloride]
agonist profile assessment (agonist activity) [5]: agonist
PAM profile assessment (PAM activity) [6]: PAM activity
Max resp % of IMP, +Alanine (20 mM) [2]: 273.4%
Thres (mM), +Alanine (20 mM) [2]: 0.01 mM
Max resp ΔF/F, +IMP (0.2 mM) ([2]; in the presence of 0.2 mM IMP): 2.2500 ΔF/F
Max resp % of Ala, +IMP (0.2 mM) ([2]; in the presence of 0.2 mM IMP): 289.4%
Thres (mM), +IMP (0.2 mM) [2]: 0.003 mM

Nc1ncnc2c1ncn2C1OC(COP(O)(O)=S)C(O)C1O (stereo not drawn) [adenosine 5′-O-thiomonophosphate, Adenosine 5′-O-thiomonophosphate]
EC50 [4, 15]: > 1000 µM
EC50 ([4]; with 20 mM alanine, read-out: EC50- with Ala): 60 µM

CCCC(CCC)NC(=O)c1ccc2c(c1)OCO2 [N-(heptan-4-yl)benzo[d][1,3]dioxole-5-carboxamide]
agonist profile assessment (agonist activity) [5]: agonist
PAM profile assessment (PAM activity) [6]: PAM activity
Max resp ΔF/F +Alanine ([7]; + Alanine, Table 17): 1.7725 and 1.2
Max resp ΔF/F +IMP ([7]; + IMP (0.2 mM), Table 17): 1.4725
Max resp ΔF/F +Alanine ([7]; +Alanine (20 mM), Table 18): 1.2 and 1.7725
EC50 ([7]; +Alanine (20 mM), Table 18, read-out: EC50 +Alanine): 420 µM and 1100 µM
Max resp ΔF/F +IMP ([7]; +IMP (0.2 mM), Table 18): 1.393 and 1.473
EC50 ([7]; EC50 + IMP, + IMP (0.2 mM), Table 17): 90 µM and 100 µM
EC50 ([7]; EC50 +Alanine + IMP, +Alanine (20 mM) + IMP (0.2 mM), Table 18): 30 µM and 100 µM
EC50 ([7]; EC50 +IMP, +IMP (0.2 mM), Table 18): 100 µM and 90 µM
EC50 ([7]; EC50 - with Ala (20 mM) and IMP (0.2 mM), with 20 mM alanine and 0.2 mM IMP): 30 ± 30 µM
EC50 ([7]; EC50 - with Ala (20 mM), with 20 mM alanine): 420 ± 60 µM
EC50 ([7]; EC50 - with IMP (0.2 mM), with 0.2 mM IMP): 90 ± 40 µM
EC50 ([7]; alone in buffer, read-out: EC50 - alone): 260 ± 90 µM
EC50 ([7]; compound alone in buffer, Table 17, read-out: EC50 + buffer (alone)): 700 µM and 260 µM
EC50 ([7]; compound alone in buffer, Table 18, read-out: EC50 +buffer (alone)): 260 µM and 700 µM
EC50 ([7]; read-out: EC50 + Alanine): 1100 µM and 420 µM

O=c1[nH]cnc2c1ncn2C1OC(COP(=O)(O)OP(=O)(O)O)C(O)C1O (stereo not drawn) [Inosine 5′-disphosphate (IDP) sodium salt]
EC50 [4]: 650 ± 70 µM

O=C(NCCc1c[nH]c2ccccc12)c1cccnc1 [N-(2-(1H-indol-3-yl)ethyl)nicotinamide, N-(2-(1H-Indol-3-yl)ethyl)nicotinamide]
EC50 [1, 8]: 50 ± 10 µM
EC50 [1, 9]: 150 ± 30 µM
Max resp % of IMP, +Alanine (20 mM) [2]: 166.4%
Thres (mM), +Alanine (20 mM) [2]: 0.03 mM
EC50 [2, 10]: 0.04 mM
EC50 [2, 11]: 0.05 mM
EC50 [2, 8]: 0.05 ± 0.01 mM
EC50 [2, 12]: 0.04 ± 0.1 mM
EC50 [2, 9]: 0.15 ± 0.03 mM
EC50 [2, 14]: 0.15 mM
Max resp % of Ala, +IMP (0.2 mM) ([2]; in the presence of 0.2 mM IMP): 170.1%
Thres (mM), +IMP (0.2 mM) [2]: 0.003 mM
